“And” between values parts separate entries of the source, which are not always exact repeats. Equal values may be shown once. “Also recorded” adds a separate entry of the source. Read-outs that look alike come from different tables or passages of the source.
Assays:
BK channel = settings: ref Vouga et al., 2019; cited from earlier work
[1] = biological target: BKα/γ1 channels (human BK channel α- and γ1-subunits (LRRC26), HEK-293T) (Homo sapiens, UniProt Q12791); experiment: Macroscopic BK currents in excised inside-out patches; assay type: biochemical
[2] = biological target: T1, BKα channels (human BK channel α-subunit, HEK-293T) (Homo sapiens, UniProt Q12791); settings: 30 µM LOP
[3] = LOP levels with a therapeutic dose in humans; assay type: in vivo; settings: therapeutic dose of 2–4 mg, assuming solvation in 1 liter of luminal fluid
[4] = humans; therapeutic dose of 2–4 mg; conversion of 2 ng/ml; cited from earlier work
BKα/γ1 channels = BKα/γ1 channels (Homo sapiens, UniProt Q12791); experiment: Whole-cell recordings from HEK-293T cells overexpressing BKα/γ1 channels; assay type: cell-based
BKα channels = BKα channels (Homo sapiens, UniProt Q12791); experiment: Kinetic model analysis
[5] = biological target: T1, BKα channels (human BK channel α-subunit, HEK-293T); experiment: biochemical
[6] = biological target: T1, BKα channels (human BK channel α-subunit, HEK-293T); settings: for τ of decay phase on LOP application: perfusion limited; for V1/2: 10 μM LOP; for effective off-rate: IC50 × on-rate; for τrecovery: two-pulse protocol
[7] = IC50 (Hill fit of mean Gmax versus [LOP]), nominally 0 Ca2+
[8] = IC50 (Hill fit of mean V1/2 versus [LOP]), nominally 0 Ca2+
[9] = nominally 0 Ca2+, 30 μM LOP, mean of individual Boltzmann fits
[10] = nominally 0 Ca2+, −100 to −60 mV

BKα channels, sequence (Q12791 whole entry): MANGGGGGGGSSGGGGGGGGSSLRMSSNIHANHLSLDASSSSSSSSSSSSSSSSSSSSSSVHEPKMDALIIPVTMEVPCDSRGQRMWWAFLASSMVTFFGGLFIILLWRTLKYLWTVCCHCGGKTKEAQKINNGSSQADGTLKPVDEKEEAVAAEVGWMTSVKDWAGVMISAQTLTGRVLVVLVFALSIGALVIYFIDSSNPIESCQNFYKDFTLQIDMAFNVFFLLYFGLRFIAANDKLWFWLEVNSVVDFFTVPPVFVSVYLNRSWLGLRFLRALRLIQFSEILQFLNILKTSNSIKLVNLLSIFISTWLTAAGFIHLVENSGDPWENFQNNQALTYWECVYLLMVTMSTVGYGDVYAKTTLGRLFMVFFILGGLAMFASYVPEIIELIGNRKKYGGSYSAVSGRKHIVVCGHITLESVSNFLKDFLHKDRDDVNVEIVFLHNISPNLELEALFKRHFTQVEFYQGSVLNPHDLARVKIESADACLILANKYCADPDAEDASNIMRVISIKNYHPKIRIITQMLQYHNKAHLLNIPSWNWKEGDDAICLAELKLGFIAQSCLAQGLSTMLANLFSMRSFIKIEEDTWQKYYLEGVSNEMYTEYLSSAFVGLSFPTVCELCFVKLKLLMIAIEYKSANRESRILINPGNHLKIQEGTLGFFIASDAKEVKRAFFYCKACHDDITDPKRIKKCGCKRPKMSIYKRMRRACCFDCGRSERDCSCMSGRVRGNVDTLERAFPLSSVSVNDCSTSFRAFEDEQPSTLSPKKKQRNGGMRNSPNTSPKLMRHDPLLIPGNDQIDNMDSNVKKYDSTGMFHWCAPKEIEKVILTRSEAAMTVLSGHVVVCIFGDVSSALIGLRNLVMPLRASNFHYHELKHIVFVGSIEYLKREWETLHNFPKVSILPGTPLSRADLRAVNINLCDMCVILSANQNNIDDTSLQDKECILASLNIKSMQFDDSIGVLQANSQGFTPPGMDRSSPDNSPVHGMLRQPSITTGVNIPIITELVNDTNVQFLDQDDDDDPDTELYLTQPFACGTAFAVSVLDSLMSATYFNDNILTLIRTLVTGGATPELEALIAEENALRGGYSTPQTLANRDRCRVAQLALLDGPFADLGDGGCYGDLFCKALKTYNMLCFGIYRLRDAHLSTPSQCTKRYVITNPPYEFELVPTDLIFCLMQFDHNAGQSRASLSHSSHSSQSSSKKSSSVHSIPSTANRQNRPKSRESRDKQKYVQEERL
BKα/γ1 channels, sequence (Q12791 whole entry): as above
BKα/γ1 channels, sequence (Q2I0M4 27-334 partner): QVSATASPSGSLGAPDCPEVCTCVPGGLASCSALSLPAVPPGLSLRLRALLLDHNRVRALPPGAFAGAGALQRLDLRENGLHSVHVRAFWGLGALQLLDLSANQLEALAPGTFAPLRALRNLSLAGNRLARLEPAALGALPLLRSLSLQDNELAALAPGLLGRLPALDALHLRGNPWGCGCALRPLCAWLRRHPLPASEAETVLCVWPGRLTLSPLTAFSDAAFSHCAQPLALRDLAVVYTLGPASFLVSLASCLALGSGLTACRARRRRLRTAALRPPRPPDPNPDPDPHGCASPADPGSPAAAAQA
BKα/γ1 channels (human BK channel α- and γ1-subunits (LRRC26), HEK-293T), sequence (Q12791 whole entry): as the sequence (Q12791 whole entry) above
BKα/γ1 channels (human BK channel α- and γ1-subunits (LRRC26), HEK-293T), sequence (Q2I0M4 27-334 partner): as the sequence (Q2I0M4 27-334 partner) above
T1 sequence (Q12791 whole entry): as the sequence (Q12791 whole entry) above

## CN(C)C(=O)C(CCN1CCC(O)(c2ccc(Cl)cc2)CC1)(c1ccccc1)c1ccccc1 [LOP, 4-[4-(4-chlorophenyl)-4-hydroxypiperidin-1-yl]-N,N-dimethyl-2,2-diphenylbutanamide]
BK channel
  inhibition of BK channel–mediated thallium flux: potent inhibitor
[1]; [7]
  IC50: 2.13 ± 0.3 µM
[1]; [8]
  IC50: 1.5 ± 1.7 µM
[1]; IC50, nominally 0 Ca2+, Vm 0 mV, Hill fit of normalized G vs [LOP]
  IC50: 11.3 ± 3.5 µM
[1]; nominally 0 Ca2+
  A (Eq. 4, IC50 versus voltage): 7.6
  mean zδ value of G-V relations versus [LOP]: 1.2 e0
  min V1/2 (Hill fit of mean V1/2 versus [LOP]): −15 ± 11 mV
  nH (Hill fit of mean Gmax versus [LOP]): 0.74 ± 0.06
  nH (Hill fit of mean V1/2 versus [LOP]): 0.72 ± 0.4
[1]; [9]
  Gmax: 0.12 ± 0.04
  V1/2: −11 ± 5 mV
[2]; voltages up to 100 mV, nominally 0 or 88 µM Ca2+
  mean open times: ≤ 0.44 ms
[2]; 88 µM Ca2+
  V1/2 of mean open time (Boltzmann fit): −83 mV
  min. open time (Boltzmann fit): 0.26 ms
  zδ of mean open time (Boltzmann fit): 1.6 e0
[2]; 88 µM Ca2+, 1/0.43 ms
  effective inhibition rate: 2,326 s^−1
[2]; 88 µM Ca2+, +50 mV
  mean open time: 0.37 ± 0.044 ms
[2]; 88 µM Ca2+, depolarized voltages
  maximum open time (Boltzmann fit): 0.43 ± 0.03 ms and 0.43 ms
[2]; 88 µM Ca2+, −50 mV
  mean open time: 0.44 ± 0.026 ms
[2]; 88 µM Ca2+, −90 mV
  Po: 0.00728 ± 0.0010
  inhibition of Po: 2.7 fold
  mean open time: 0.32 ± 0.03 ms
[2]; 88 µM Ca2+, −160 to −130 mV
  Po: 0.0037 ± 0.0003
  mean open time: 0.26 ± 0.004 ms
[2]; nominally 0 Ca2+, 1/0.39 ms
  effective inhibition rate: 2,564 s^−1
[2]; nominally 0 Ca2+, +60 mV
  Po: 1.3 ± 0.6 × 10^−4
  inhibition of Po: 3.7 fold
  mean open time: 0.32 ± 0.03 ms
[2]; nominally 0 Ca2+, +80 mV
  Po: 5.4 ± 1.3 × 10^−4
  inhibition of Po: 3.5 fold
  mean open time: 0.38 ± 0.008 ms
[2]; nominally 0 Ca2+, depolarized voltages
  extrapolated maximum open time (Boltzmann fit): 0.39 ± 0.04 ms
[2]; [10]
  mean Po: 1.7 ± 0.2 × 10^−6
  mean open time: 0.18 ± 0.009 ms
[3]
  estimated concentration of LOP in the intestinal lumen: ≥ 8 µM
[4]
  plasma levels of LOP: ~4 nM
BKα/γ1 channels; 10 µM LOP, extracellular bath
  current recovery after washout of LOP (of predrug amplitude): ~80%
BKα/γ1 channels; bath application of 10 µM LOP, pulses to 100 mV
  mean fractional whole-cell current at equilibrium: 0.39 ± 0.06
BKα/γ1 channels; extracellular bath-applied LOP
  slowing versus cytosolic application to excised inside-out patches: ~20 times
BKα/γ1 channels; extracellular bath-applied LOP (10 µM)
  mean time constant for inhibition to reach equilibrium: 2.8 ± 0.4 min
BKα/γ1 channels; representative experiment Fig. 5 A, first application of 10 µM LOP at t = 5 min
  τ of exponential fit (a): 1.9 min
BKα/γ1 channels; representative experiment Fig. 5 A, washout at t = 25 min
  τ of exponential fit (e): 51 s
BKα channels
  KLOP in the open state: 1.6 µM
BKα channels; Sch 2, closed state, global fit, nominally 0 and 88 μM Ca2+
  KLOP (dissociation constant for LOP binding): 53.4 µM
BKα channels; Sch 2, fold difference in LOP affinity between closed and open states
  H (allosteric constant, LOP binding vs closed-open equilibrium): 34.4
BKα channels; Sch 5
  W (coupling between LOP binding and CSD activation): 1.09
[5]; IC50 (Hill fit of mean Gmax versus [LOP]), 88 µM Ca2+
  IC50: 1.06 µM and 1.1 µM
[5]; [7]
  IC50: 1.4 µM and 1.41 µM
[5]; IC50 (Hill fit of mean V1/2 versus [LOP]), 88 µM Ca2+
  IC50: 0.31 ± 0.3 µM
[5]; [8]
  IC50: 0.55 µM
[5]; IC50(∞), asymptotic IC50 at very depolarized voltages (Eq. 4), 88 µM Ca2+
  IC50: 0.87 µM
[5]; IC50(∞), asymptotic IC50 at very depolarized voltages (Eq. 4), nominally 0 Ca2+
  IC50: 2.2 µM
[5]; IC50, 88 μM Ca2+, Vm 50 mV, Hill fit of normalized G vs [LOP]
  IC50: ~0.94 µM
[5]; extrapolated IC50, 88 µM Ca2+, 90 mV
  IC50: 0.71 µM
[5]; half-maximal inhibitory concentration (IC50) for open channels, voltage-activated BK current, wide range of cytosolic [Ca2+]
  IC50: ~1 µM
[6]; 3 µM LOP cytosolic with 3 µM extracellular LOP (pipette), 88 µM Ca2+
  mean fractional current: 0.361 ± 0.013
[6]; 3 µM LOP cytosolic without extracellular LOP, 88 µM Ca2+
  mean fractional current: 0.292 ± 0.033
[6]; 3 µM LOP in pipette solution, 88 µM Ca2+, several minutes
  effect of extracellular LOP alone on BK current: little apparent effect; also recorded: no apparent inhibition
[6]; 3 µM LOP in the pipette, 0 LOP cytosolic, after 30 min of continuous recording
  decrease of normalized current: 5–10%
[6]; 30 µM LOP cytosolic, 0 µM Ca2+, representative experiment
  τ of decay phase on LOP application: 8.5 s
[6]; 30 µM LOP cytosolic, 88 µM Ca2+, representative experiment
  τ of decay phase on LOP application: 7.1 s
[6]; 30 µM LOP cytosolic, Fig. 2 A
  current recovery after washout of LOP (of predrug amplitude): ~100%
[6]; 30 µM LOP to cytosolic side, 88 µM Ca2+, reflects solution switching
  time constant of LOP reaching 90% of its maximal effect: 7 ± 1 s
[6]; 88 µM Ca2+
  A (Eq. 4, IC50 versus voltage): 0.39
  min V1/2 (Hill fit of mean V1/2 versus [LOP]): −57 ± 8 mV
  nH (Hill fit of mean Gmax versus [LOP]): 0.79 ± 0.06
  nH (Hill fit of mean V1/2 versus [LOP]): 0.94 ± 0.6
[6]; 88 μM Ca2+, 3 µM LOP, 90 mV / -60 mV duration 2 / 2 ms
  y0 (final normalized current in pulse train): 0.50 ± 0.019
[6]; 88 μM Ca2+, 3 µM LOP, 90 mV / -60 mV duration 2 / 8 ms
  y0 (final normalized current in pulse train): 0.74 ± 0.032
[6]; 88 μM Ca2+, mean of individual Boltzmann fits
  V1/2: −54 ± 7 mV
[6]; 88 μM Ca2+, 30 μM LOP, mean of individual Boltzmann fits
  Gmax: 0.0763 ± 0.008
[6]; 88 µM Ca2+, 50 mV
  effective on-rate (slope of 1/τdecay versus [LOP]): 4.3 ± 0.4 × 10^7 M^−1 s^−1 and 4.3 × 10^7 ± 0.4 × 10^7 M^−1 s^−1
  effective off-rate: ~40 s⁻¹
[6]; 88 µM Ca2+, 90 mV
  effective on-rate (slope of 1/τdecay versus [LOP]): 5.8 ± 0.6 × 10^7 M^−1 s^−1 and 5.8 × 10^7 ± 0.6 × 10^7 M^−1 s^−1
  effective off-rate: 41 s⁻¹ and 40 s⁻¹
[6]; 88 µM Ca2+, on-rates at 50 and 90 mV
  nominal effective valence of on-rates (Eq. 5): 0.21 ± 0.11 e0
[6]; 88 µM Ca2+, −80 mV, 3 µM LOP
  τrecovery: 3.87 ms
  mean tail current τ: 1.82 ± 0.14 ms
[6]; 88 µM Ca2+, −80 mV, 10 µM LOP
  τrecovery: 4.14 ms
  mean tail current τ: 2.05 ± 0.6 ms
[6]; 88 µM Ca2+, −120 mV, 3 µM LOP
  τrecovery: 2.04 ms
  mean tail current τ: 0.71 ± 0.06 ms
[6]; 88 µM Ca2+, −120 mV, 10 µM LOP
  τrecovery: 2.11 ms
  mean tail current τ: 0.78 ± 0.07 ms
[6]; 3 or 30 µM cytosolic LOP with 3 µM extracellular LOP, 88 µM Ca2+, Fig. 2 B
  current recovery following washout of cytosolic LOP: > 90%
[6]; nominally 0 Ca2+
  A (Eq. 4, IC50 versus voltage): 5,500
  mean zδ value of G-V relations versus [LOP]: 1.1 e0
  min Gmax (Hill fit of mean Gmax versus [LOP]): 0.16 ± 0.04
  min V1/2 (Hill fit of mean V1/2 versus [LOP]): 162 ± 16 mV
  nH (Hill fit of mean Gmax versus [LOP]): 1.2 ± 0.13
  nH (Hill fit of mean V1/2 versus [LOP]): 0.65 ± 1.1
[6]; nominally 0 Ca2+, mean of individual Boltzmann fits
  V1/2: 165 ± 5 mV
[6]; switch from 30 to 0 µM LOP, cytosolic side
  time to complete reversal of inhibition upon washout: ≤ 1 min
[6]; washout of 30 µM LOP, 0 µM Ca2+, representative experiment
  τ of wash phase: 35 s
[6]; −80 mV, 3 µM LOP
  apparent closing rate (1/τclosing): 684 ± 57 s⁻¹
  tail current τ (fit to mean trace): 1.99 ms
  tail current τ (representative trace): 2.25 ms
[6]; −80 mV, 10 µM LOP
  tail current τ (fit to mean trace): 1.77 ms
  tail current τ (representative trace): 1.73 ms
[6]; −120 mV, 3 µM LOP
  apparent closing rate (1/τclosing): 1,460 ± 69 s^−1
  tail current τ (fit to mean trace): 0.82 ms
  tail current τ (representative trace): 0.876 ms
[6]; −120 mV, 10 µM LOP
  tail current τ (fit to mean trace): 0.85 ms
  tail current τ (representative trace): 0.694 ms
